Results: patent publication US4829073A, “Thiadiazole oxides for treating gastrointestinal motility disorders” (Bristol-Myers Company, priority 1988, dated 1989)
Read-outs that look alike come from different tables or passages of the source.

Key:
[1] = system: calcium channel receptors; assay: Radioligand binding to membrane receptors: calcium channel
Experimental: (§1) Radioligand binding studies to membrane receptors were carried out to assess the potential for interaction with other receptors. […] To assess any possible cardiovascular effects a bolus injection of the test compound at various doses was administered to anesthetized dogs. Thus, the compound of Example 1, at 5 mg/kg administered I.V., had no effect on heart rate or blood pressure in three anesthetized dogs.

rat fundic strip = assay: Electrically stimulated isolated rat stomach fundus; format: cell-based
Experimental: (§2) Two classical pharmacological preparations, the field stimulated guinea pig ileum and field stimulated rat fundic strip, are utilized to assess gastroprokinetic activity in vitro.
The rat fundic strip is prepared according to the method described by J. R. Vane, Brit. J. Pharmacol., 12, 344-349 (1957). For this preparation, strips are made by removing the fundal end of the stomach and slitting it open to form a sheet. Small cuts are made transversing the longitudinal muscle to produce two strips 3-4 cm in length. The tissues are mounted in a 20 ml organ bath containing Kreb's solution at 37° C. and are oxygenated with 95% O2 -5% CO2. Resting tension is adjusted to 1.0 g. Contractions are recorded by means of a force displacement transducer and a Beckman Dynograph Type R.
Once a consistent response to electrical field stimulation is established, varying amounts of a test compound are added to the bath. All compounds are administered three minutes prior to electrical stimulation at volumes of 0.2 ml to 0.6 ml for final bath concentrations of 0.1 μM thru 100 μM. Each tissue is thoroughly washed between each dose. A dose response curve is achieved by measuring the effect of increasing dose levels of test materials on the tissue contraction due to electrical field stimulation.

[2] = system: circular smooth muscle contractile activity of the antral and duodenal portion of the stomach; assay: Gastric contractile activity in the anesthetized dog; format: in vivo, Male Beagle Dogs; details: I.V. cumulative dosing 0.01 to 10 mg/kg
Experimental: The effect of test compounds on circular smooth muscle contractile activity of the antral and duodenal portion of the stomach are measured by strain gauge arches sewn on the serosal surface similar to the procedure described by […] et al., Digestion, 28, 205-209 (1983). Male Beagle Dogs, weighing 8 to 14 kg, are fasted overnight and then anesthetized with pentothal (thiopental sodium), 20 mg/kg and maintained with I.V. alpha-chloralose (100 mg/ml in PEG 400, diluted 1:1 with saline immediately before use) as needed, usually 100 mg/dose. The trachea is intubated for respiratory assistance if needed, and the right femoral artery and vein are cannulated to monitor blood pressure and administer I.V. solutions, respectively. The stomach and intestine are exposed by a midline incision, and a Walton-Brodie adjustable strain gauge arch is sewn on the ventral surface of the antrum of the stomach, 3-5 cm proximal to the pylorus. The arch is oriented to respond to contractions of the circular muscle, and the initial resting tension is set at 25 grams by adjusting the length of the arch. The preparation is allowed to stabilize for 1 to 2 hours. Fifteen minutes after observation of migrating motor complex phase III activity, test compounds are given every 10 minutes in a cumulative dosing manner beginning at 0.01 mg/kg to 10 mg/kg. The test compounds are dissolved in saline at concentrations that are dependent on the weight of each animal so that a constant volume will be administered at each dose level. […] The stomach contractions, the cumulative grams of tension developed by the stomach contractions, EKG, heart rate, blood pressure, and any additional contractile and/or electrical activities are recorded on a Beckman Dynograph. The results are expressed as the increased tension developed by the smooth muscles in response to the administration of test compound.

[3] = system: guinea pig ileum (longitudinal muscle); assay: Electrically stimulated isolated guinea pig ileum; format: cell-based; details: Cavia porcellus
Experimental: as §2
A modification of the procedure described by W. D. M. Paton, J. Physiol. (Lond), 127, 40-41P (1955). Segments of the preterminal ileal tissue, 3-4 cm in length, are mounted in a 20 ml tissue bath. The tissues are perfused at 37° C. with a modified Krebs solution and continuously gassed with 95%O2 -5% CO2. The solution is prepared with millipore water and consists of (mM/L): NaCl 116, KCl 5, CaCl2 2.5, KH2 PO4 1.2, MgSO4.7H2 O 0.5, NaHCO3 25 and Glucose 11.1.
A force displacement transducer is attached to each tissue and the resting tension adjusted to 1.0 g. The tissues are allowed to equilibrate for one hour, with washes every twenty minutes, after the stimulator is engaged or until twitch height remains stable.
Dose response curves for test compounds are established by adding single doses of the material in increasing increments until a maximal effect is achieved. Compounds are administered at volumes ranging from 0.2 to 0.6 ml to give final bath concentrations of 0.1 μM thru 100 μM. The test materials remain in contact with the tissue for 2 to 3 minutes, until the peak effect is achieved, before thorough washing with Kreb's solution. […]

[4] = system: gastric emptying of a solid meal; assay: Gastric emptying of solid meal in conscious dogs; format: in vivo, beagle dogs; details: for gastric half emptying time (T1/2) of a solid meal: control 208 ± 34, *P < .05; for half emptying time (t1/2) of a solid meal, in words: orally, conscious dogs
Experimental: Under aseptic conditions 10 beagle dogs were implanted with T-shaped titanium duodenal cannulas. The dogs were allowed to recover from surgery for 3 weeks. Each dog before the test was fasted for 16-18 hours. Water was provided ad lib. On the day of the test, the duodenal cannula was opened and the stomach contents were drained. The cannula was closed again and the dog was dosed orally with either placebo (10cc saline) or with test compound in 10cc saline. […] The dry weight of this food is 36 grams. After the dog had ingested the food the cannula was opened and an insert was placed in the cannula which drained the chyme through the cannula into a beaker. This collection was continued for 5 hours and samples were collected every thirty minutes. The chyme was filtered and dried in an oven. The dry weight collected every thirty minutes was deducted from the dry weight of the food left in the stomach. A time response curve of gastric emptying was developed and t1/2, the time taken to empty 50% of the solid meal from the stomach was determined. The t1/2 for the test compound at various doses was compared with controls. Significance of differences was determined using paired t-test.

[5] = system: opossum lower esophageal sphincter (LES); assay: Lower esophageal sphincter pressure in the anesthetized opossum; format: in vivo
Excerpt: This procedure measures the effect of the test compounds on the opossum lower esophageal sphincter (LES) which closely resembles the human sphincter. In order to test the effects of compounds on LES resting pressure, a small tube perfused with water at a constant flow rate is passed through the anesthetized opossum esophagus and water pressure in the tube is monitored. The method is similar to that described by R. Goyal et al., Gastroenterology, 71, 62-67 (1976). An increase in esophageal tone is measured as an increase in pressure and reported as a percent increase of the control determination. The compound of Example 1 was given as a single bolus dose of 10 mg/kg I.V. in four opossums.

[6] = system: heart rate or blood pressure; assay: Cardiovascular effects in anesthetized dogs; format: in vivo; details: 5 mg/kg I.V. bolus; three anesthetized dogs
Experimental: as §1

serotonin receptors = assay: Radioligand binding to membrane receptors: serotonin
Experimental: as §1

benzodiazepine receptors = assay: Radioligand binding to membrane receptors: benzodiazepine
Experimental: as §1

dopamine receptors = assay: Radioligand binding to membrane receptors: dopamine
Experimental: as §1

GABA receptors = assay: Radioligand binding to membrane receptors: GABA
Experimental: as §1

rat gastric emptying = assay: In vivo small animal gastroprokinetic activity: rat gastric emptying; design: species or system male Sprague-Dawley rats; details: normal rats; for ED50: Rattus norvegicus
Experimental: IN VIVO SMALL ANIMAL GASTROPROKINETIC ACTIVITY The method used to assess rat gastric emptying is a modification of the procedures described by D. A. Droppleman et al., Journal of Pharmacological Methods, 4, 227-230 (1980). Test compounds (0.3 to 30 mg/kg in 1 ml/kg vehicle) are administered either orally or subcutaneously to male, Sprague-Dawley rats (160-180 g) that were fasted overnight. The test animals receive 2.5 ml of a freshly made milk plus ground rat chow meal by oral intubation, thirty or fifteen minutes following oral or subcutaneous administration, respectively. Rats are sacrificed 25 minutes following the test meal, and the stomachs are quickly excised. Each stomach containing the remaining meal is weighed intact on an analytical balance. To empty the contents before reweighing, each stomach is cut open, rinsed thoroughly and then blotted dry. The difference in weights indicates the amount of meal remaining in the stomach. The amount of meal retained is calculated as a percent of the total meal weight administered.

[7] = 1.0 mg/kg P.O. (N = 3), 60 minutes before meal
[8] = 3.0 mg/kg P.O. (N = 3), 60 minutes before meal

Nc1n[s+]([O-])nc1NCCSCc1ccc(CN2CCCCC2)o1 (stereo not shown) [Example 1, 3-Amino-4-{2-[(5-piperidinomethyl-2-furyl)methylthio]ethylamino}-1,2,5-thiadiazole 1-oxide]
binding to calcium channel receptors [1]: does not bind
EC50 (rat fundic strip; bath concentrations 0.1 μM thru 100 μM, 37° C., 95% confidence limits in parentheses): 8.2 µM
Emax (rat fundic strip; read-out: increase in contractile force, maximal response over control): 82 ± 10%
ED50 ([2]; Canis lupus familiaris, iv, 50% of approx. 20 grams mean maximal response, read-out: ED50 value (dose necessary to achieve 10 grams of tension)): 0.24 mg/kg
duodenal tension [2]: increased the duodenal tension dose dependently
maximal response of developed tension [2]: 24±5 grams
EC50 ([3]; 95% confidence limits of 84-1629, bath concentrations 0.1 μM thru 100 μM, 37° C., read-out: computer projected EC50 value): 224 µM
Emax ([3]; read-out: increase in contractile amplitude, maximal response over control): 37 ± 4.8%
gastric half emptying time (T1/2) of a solid meal ([4]; 0.1 mg/kg P.O. (N = 3), 60 minutes before meal): 204 ± 32 min
gastric half emptying time (T1/2) of a solid meal [4, 7]: 96 ± 14 min
gastric half emptying time (T1/2) of a solid meal [4, 8]: 98 ± 16 min
half emptying time (t1/2) of a solid meal, in words ([4]; 1.0 mg/kg): significantly decreased
increase in LES pressure ([5]; 10 mg/kg I.V. single bolus, four opossums, percent increase of the control determination): 33%
inhibition of LES pressure following the initial increase ([5]; I.V., higher doses than 10 mg/kg): no inhibition of LES pressure following the initial increase was observed
effect on blood pressure [6]: no effect
effect on heart rate [6]: no effect
binding to serotonin receptors (serotonin receptors): does not bind
binding to benzodiazepine receptors (benzodiazepine receptors): does not bind
binding to dopamine receptors (dopamine receptors): does not bind
binding to GABA receptors (GABA receptors): does not bind
ED50 (rat gastric emptying; sc, subcutaneous, 15 min before test meal, read-out: subcutaneous ED50 value, stomach emptying): 0.4 mg/kg
ED50 (rat gastric emptying; oral, 30 min before test meal, read-out: oral ED50 value, stomach emptying): 2.9 mg/kg
maximum response over control values, stomach emptying (rat gastric emptying; oral): 95±19%
maximum response over control values, stomach emptying (rat gastric emptying; subcutaneous): 105±6%

NC1=NS(=O)(=O)N=C1NCCSCc1ccc(CN2CCCCC2)o1 [Example 2]
gastric half emptying time (T1/2) of a solid meal [4, 7]: 110 ± 18 min
half emptying time (t1/2) of a solid meal, in words ([4]; 1.0 mg/kg): significantly decreased

CCN(CC)CCNC(=O)c1cc(Cl)c(N)cc1OC [Metoclopramide, metoclopramide, reference compound]
gastric half emptying time (T1/2) of a solid meal ([4]; 0.1 mg/kg P.O. (N = 3), 30 min before meal): 120 ± 21 min
gastric half emptying time (T1/2) of a solid meal ([4]; 1.0 mg/kg P.O. (N = 3), 30 min before meal): 198 ± 14 min

CNC(=C[N+](=O)[O-])NCCSCc1ccc(CN(C)C)o1 [Ranitidine, ranitidine, reference compound]
gastric half emptying time (T1/2) of a solid meal [4, 7]: 206 ± 31 min
gastric half emptying time (T1/2) of a solid meal [4, 8]: 206 ± 24 min
half emptying time (t1/2) of a solid meal, in words ([4]; at the tested doses (1.0 and 3.0 mg/kg)): ineffective
